Measurements as given in ChEMBL document CHEMBL6182869, “Tetracationic tetraaryltetranaphtho[2,3]porphyrins for photodynamic inactivation against Staphylococcus aureus biofilm” (Eur J Med Chem, 2025).
Activity calls are given as the source filed them. No cut-off for these calls is given here.

Experiments:
Staphylococcus aureus [1] = experiment: Antibacterial activity against Staphylococcus aureus assessed as eradication rate at 8 uM preincubated with compound for 15 mins followed by light irradiation with 730 nm, 40 J/cm2 relative to control; type: functional; details: 0.25 h
Escherichia coli [2] = experiment: Antibacterial activity against Escherichia coli assessed as bacterial growth inhibition measured after 24 hrs by broth microdilution method; type: functional
[3] = Induction of singlet oxygen quantum yield under 418 nm light irradiation by DPBF based assay; type: functional
[4] = Photophysical property of the compound assessed as fluorescence quantum yield by UV-vis spectrophotometric analysis; type: physicochemical
HaCaT [5] = experiment: Phototoxicity in human HaCaT cells assessed as cell viability at 16 uM preincubated for 15 mins by MTT assay; type: functional, cell-based
Candida albicans [6] = experiment: Antifungal activity against Candida albicans assessed as fungal growth inhibition measured after 24 hrs by broth microdilution method; type: functional
Staphylococcus aureus [7] = experiment: Antibiofilm activity against Staphylococcus aureus assessed as disruption of mature biofilm structure at 16 uM preincubated for 15 mins followed by light irradiation with 730 nm, 40 J/cm2 by crystal violet staining based analysis; type: functional, organism-based
Staphylococcus aureus [8] = experiment: Antibiofilm activity against Staphylococcus aureus at 16 uM preincubated for 15 mins followed by light irradiation with 730 nm, 40 J/cm2 by SYTO 9/PI staining based CLSM analysis; type: functional, organism-based
Staphylococcus aureus [9] = experiment: Antibiofilm activity against Staphylococcus aureus assessed as viable bacteria at 16 uM preincubated for 15 mins followed by light irradiation with 730 nm, 40 J/cm2 by SYTO 9/PI staining based CLSM analysis; type: functional, organism-based
[10] = Photophysical property of the compound assessed as singlet oxygen quantum yield by UV-vis spectrophotometric analysis; type: physicochemical
Staphylococcus aureus [11] = experiment: Antibiofilm activity against Staphylococcus aureus assessed as increase in red fluorescence intensity at 16 uM preincubated for 15 mins followed by light irradiation with 730 nm, 40 J/cm2 by SYTO 9/PI staining based CLSM analysis; type: functional, organism-based
Staphylococcus aureus [12] = experiment: Bactericidal activity against Staphylococcus aureus at 0.5 to 8 uM; type: functional, organism-based; details: dose 0.5-8 µM
HaCaT [13] = experiment: Phototoxicity in human HaCaT cells assessed as cell viability at 16 uM preincubated for 15 mins followed by light irradiation with 730 nm, 40 J/cm2 by MTT assay; type: functional, cell-based
Staphylococcus aureus [14] = experiment: Antibacterial activity against Staphylococcus aureus assessed as log reduction in bacterial viability at 8 uM preincubated with compound for 15 mins followed by light irradiation with 730 nm, 40 J/cm2 by cell counting analysis relative to control; type: functional; details: 0.25 h
Staphylococcus aureus [15] = experiment: Antibiofilm activity against Staphylococcus aureus assessed as disruption of mature biofilm rate at 16 uM preincubated for 15 mins followed by light irradiation with 730 nm, 40 J/cm2 by crystal violet staining based analysis relative to control; type: functional; details: 0.25 h
Staphylococcus aureus [16] = experiment: Antibacterial activity against Staphylococcus aureus assessed as reduction in viable bacteria at 0.5 uM preincubated with compound for 15 mins followed by light irradiation with 730 nm, 40 J/cm2 by cell counting analysis relative to control; type: functional; details: 0.25 h
Staphylococcus aureus [17] = experiment: Antibacterial activity against Staphylococcus aureus assessed as bacterial growth inhibition preincubated with compound for 15 mins followed by light irradiated with 730 nm, 40 J/cm2 and measured after 24 hrs by broth microdilution method; type: functional; details: light or radiation study, 24.25 h, time 1455 min
Staphylococcus aureus [18] = experiment: Antibacterial activity against Staphylococcus aureus preincubated with compound for 15 mins followed by light irradiation with 730 nm, 40 J/cm2 by cell counting analysis; type: functional, organism-based; details: dose 0.5-8 µM
[19] = Dark cytotoxicity against human HaCaT cells assessed as cell viability at 16 uM preincubated for 15 mins by MTT assay; type: toxicity, cell-based; details: read-out: Activity
Staphylococcus aureus [20] = experiment: Antibacterial activity against Staphylococcus aureus assessed as bacterial growth inhibition measured after 24 hrs by broth microdilution method; type: functional
Escherichia coli [21] = experiment: Antibacterial activity against Escherichia coli assessed as bacterial growth inhibition preincubated with compound for 15 mins followed by light irradiated with 730 nm, 40 J/cm2 and measured after 24 hrs by broth microdilution method; type: functional; details: light or radiation study, 24.25 h, time 1455 min
Staphylococcus aureus [22] = experiment: Antibiofilm activity against Staphylococcus aureus assessed as reduction in green fluorescence intensity at 16 uM preincubated for 15 mins followed by light irradiation with 730 nm, 40 J/cm2 by SYTO 9/PI staining based CLSM analysis; type: functional, organism-based
Candida albicans [23] = experiment: Antifungal activity against Candida albicans assessed as fungal growth inhibition preincubated with compound for 15 mins followed by light irradiated with 730 nm, 40 J/cm2 and measured after 24 hrs by broth microdilution method; type: functional; details: light or radiation study, 24.25 h, time 1455 min

## CC[N+](C)(CC)CCCOc1ccc(-c2c3nc(c(-c4ccc(OCCC[N+](C)(CC)CC)cc4)c4[nH]c(c(-c5ccc(OCCC[N+](C)(CC)CC)cc5)c5nc(c(-c6ccc(OCCC[N+](C)(CC)CC)cc6)c6[nH]c2c2cc7ccccc7cc62)-c2cc6ccccc6cc2-5)c2cc5ccccc5cc42)-c2cc4ccccc4cc2-3)cc1.[Br-].[Br-].[Br-].[Br-]
Staphylococcus aureus [1]
  Activity: >99.9%
Escherichia coli [2]
  MIC: > 64 µM
[3]
  Activity: Active
[4]
  Activity: 0.06
HaCaT [5]
  Activity: inactive
Candida albicans [6]
  MIC: 64 µM
Staphylococcus aureus [7]
  Activity: Active
Staphylococcus aureus [8]
  Activity: Active
Staphylococcus aureus [9]
  Activity: Active
[10]
  Activity: 0.51
Staphylococcus aureus [11]
  Activity: Active
Staphylococcus aureus [12]
  Activity: Active
HaCaT [13]
  Activity: inactive
Staphylococcus aureus [14]
  log(activity): 3
Staphylococcus aureus [15]
  Activity: 80.1%
Staphylococcus aureus [16]
  Activity: >75%
Staphylococcus aureus [17]
  MIC: 8 µM
Staphylococcus aureus [18]
  Activity: Dose-dependent-effect
[19]
  viability at 0.25 h, 16 µM: > 80%
Staphylococcus aureus [20]
  MIC: 16 µM
Escherichia coli [21]
  MIC: > 64 µM
Staphylococcus aureus [22]
  Activity: Active
Candida albicans [23]
  MIC: 64 µM
